Assay results taken from patent US20240294457A1, “Strained bi-functionalized trans-cyclooctenes” (Stichting Radboud Universiteit, priority 2021, published 2024).

Tests used:
[1] = Kinetics study of fluorophore (AMC) release, fluorescence, with BP tetrazine; settings: PBS pH=7.2, 37° C., first-order one phase fit
Procedure: (§1) A procedure adapted from prior art was followed (Fan, X. et al., Optimized tetrazine derivatives for rapid bioorthogonal decaging in living cells. Angew. Chem. 2016, 128 (45), 14252-14256.)
(§2) Stock solutions (all in DMSO) • Stock A (R): E-022a (10 mmolar) • Stock A (NR): E-022b (10 mmolar) • Stock B (DM): 3,6-Dimethyl-1,2,4,5-tetrazine (DM) (20 mmolar) • Stock B (BP): 3,6-Di-2-pyridyl-1,2,4,5-tetrazine (BP) (20 mmolar) • Stock PC: 7-Amino-4-methylcoumarin (10 mmolar) 2.5 μL of the tetrazine stock (DM or BP) was mixed with 395.5 μL of PBS (pH=7.2). 2 μL of the TCO stock (A (R) or A (NR)) was added to this. The reaction mixtures were incubated at 37° C. under mixing (300 rpm). Subsequently, the fluorescence (F1) was measured (ex: 380 nm, em. 450 nm) at certain time points after the addition of the TCO by aliquoting 30 μL in a 384 wells plate (Greiner, black non-binding flat bottom) and directly measuring with a Tecan Spark plate-reader. As control experiment the maximum amount of released AMC was measured (F2, Stock PC without tetrazine or TCO). […] The release efficiency (%) was calculated: F1/F2×100%. All experiments were executed in triplo and the data was processed using GraphPad Prism (version 9.0). The Kelim. values were determined by first-order exponential one phase decay approximations. […] For BP this value was 2.96*10^−6S^−1.

[2] = Kinetics study of fluorophore (AMC) release, fluorescence, with DM tetrazine; settings: PBS pH=7.2, 37° C.
Procedure: as §1, §2

[3] = 19F-NMR kinetic study of click-to-release reaction (release of PFP)
Procedure: FIG. 2: ^19F-NMR kinetic study of the click-to-release reaction of 20 mM TCO (E-03a) with 3,6-di(pyridin-2-yl)-1,2,4,5-tetrazine at 20° C.
The ^19F NMR (377 MHz) spectrum of an NMR-tube filled with a solution of E-03a (5 mg, 1.0 equiv, 11.9 μmol) in CDCl3 (500 μl) was measured. Next, a solution of 3,6-di(pyridin-2-yl)-1,2,4,5-tetrazine (3.1 mg, 1.1 equiv, 13 μmol) in CDCl3 (100 μl) was added to the NMR tube. The tube was vigorously shaken and placed back in the NMR apparatus. The sample was measured within two minutes after the addition of the second compound. Every 48 seconds a measurement (number of scans: 4, relaxation delay: 5.8 see, range: −147.0 to −178.5 ppm) was taken of the sample. After 160 minutes the measurements were stopped.
Only after elevating the temperature to +10° C., the pentafluorophenyl carbonate was released from the conjugated product. Release of payload from compounds of the invention was not only found to be fast, but also complete. […] The fastest payload release observed with their compounds afforded less than 20% release over 250 minutes.

[4] = Kinetics study of doxorubicin release by HPLC/LCMS; settings: PBS pH=7.2, 37° C., directly after addition of tetrazine
Procedure: Stock solutions (all in DMSO) • Stock E-025a: E-025a (10 mmolar) • Stock Ttz: 3,6-dimethyl-1,2,4,5-tetrazine (XA, 20 mmolar) Procedure: 100 μL of the TCO-Dox stock was added to 900 μL of PBS (pH=7.2) and HPLC analysis was done which only indicated starting material (t=13.08 min). Hereafter the reaction was incubated at 37° C. under mixing (300 rpm) and 500 μL of the Ttz stock was added. At certain time points after the addition of the Ttz the reaction mixture was analyzed by aliquoting 200 μL and analysis by HPLC/LCMS.

[5] = Kinetics study of TCO-Tz click reaction by UV spectroscopy (540 nm); settings: MeCN, 20° C.
Procedure: FIG. 1: The kinetics of TCO E-02a and 3,6-di(pyridin-2-yl)-1,2,4,5-tetrazine with a concentration of 10 and 50 μM at 20° C. in MeCN.
The reaction rate in a TCO-Tz click reaction of E-02a was measured under similar conditions as described in Versteegen et al., Angewandte Chemie International Edition 2013, 52 (52), 14112-14116. The second order reaction constant of the reaction between 3,6-di(pyridin-2-yl)-1,2,4,5-tetrazine and E-02a was determined under second order conditions in MeCN at 20° C. by UV spectroscopy. A cuvette was filled with MeCN (2.8 mL) and equilibrated at 20° C. A stock solution of tetrazine in DMSO (100 μl) was added to the cuvette. The absorption of the tetrazine moiety was measured at 540 nm. Next, the cuvette was removed from the apparatus to add a stock solution of E-02a in DMSO (100 μl) and briefly mixed the solution by shaking the cuvette before placing it back into the apparatus. The absorption at 540 nm was measured for 15 minutes. From this absorption at 540 nm, the concentration of tetrazine was calculated using a molar absorption coefficient of ε=430 M^−1 cm^−1. […] TCO reactions known from the prior art (Versteegen et al., Angewandte Chemie International Edition 2013, 52 (52), 14112-14116, DOI: 10.1002/anie.201305969) were assessed at 83.3 μM and afforded a lower rate of 62, 5 M^−1s^−1 under similar conditions.

[6] = Stability test of TCO in deuterated PBS buffer at 37° C. followed by 1H-NMR; format: physicochemical; settings: covered from light
Procedure: An NMR tube was charged with a solution of E-04a (41 mg) in deuterated PBS buffer (500 μl). The NMR sample was placed in a water bath at 37° C. while being covered from light by aluminum foil.

CCOC(=O)[C@H]1[C@@H]2CC[C@@H](OC(=O)Nc3ccc4c(C)cc(=O)oc4c3)/C=C\C[C@@H]21 [E-022a, COOEt-Exo-Axial-TCO-AMC]
Kelim. value of AMC release [1]: 2.96*10^−6 S^−1 | Kelim. value of AMC release ([2]; DM tetrazine, first-order one phase fit): 8.15*10^−5 S^−1

CCOC(=O)[C@H]1[C@@H]2CC[C@@H](OC(=O)Oc3c(F)c(F)c(F)c(F)c3F)/C=C/C[C@@H]21 [E-03a, ethyl (1S,5R,8R,9S, E)-5-(((perfluorophenoxy)carbonyl)oxy)bicyclo[6.1.0]non-3-ene-9-carboxylate]
release of PFP (pentafluorophenolate) after 20 minutes ([3]; 20 mM TCO, CDCl3, 20° C., 1.1 equiv tetrazine): Almost complete release | release upon tautomerization from the click product ([3]; lower temperatures, 40 mM, dipyridyl tetrazine): instantaneous | formation of pentafluorophenol from click conjugate ([3]; −20° C., 40 mM, dipyridyl tetrazine): did not show any formation of pentafluorophenol

CCOC(=O)[C@H]1[C@@H]2CC[C@@H](OC(=O)N[C@H]3C[C@H](O[C@H]4C[C@](O)(C(=O)CO)Cc5c(O)c6c(c(O)c54)C(=O)c4c(OC)cccc4C6=O)O[C@@H](C)[C@@H]3O)/C=C\C[C@@H]21 [E-025a, COOEt-Exo-Axial-TCO-PNP]
release of doxorubicin after addition of the tetrazine [4]: almost instant release

CCOC(=O)C1C2CC=CC(O)CCC21 (single isomer, unassigned) [E-02a]
second order rate constant k2 (reaction rate) of click reaction ([5]; concentration 10 μM): 249 M⁻¹ s⁻¹ | second order rate constant k2 (reaction rate) of click reaction ([5]; concentration 50 μM): 437 M⁻¹ s⁻¹

CCOC(=O)[C@H]1[C@@H]2CCC(OC(=O)Oc3c(F)c(F)c(F)c(F)c3F)C=CC[C@@H]21 (stereo in doubt) [E-03b, ethyl (1S,5R,8R,9S, E)-5-(((perfluorophenoxy)carbonyl)oxy)bicyclo[6.1.0]non-3-ene-9-carboxylate]
release rate compared with E-03a ([3]; E-03b used instead of E-03a): several factors slower

CCOC(=O)[C@H]1[C@@H]2CCC(OC(=O)Nc3ccc4c(C)cc(=O)oc4c3)/C=C\C[C@@H]21 (stereo partly drawn) [E-022b, COOEt-Exo-Equatorial-TCO-AMC]
AMC release compared with E-022a ([2]; tetrazine (DM or BP) not specified): slower

O=C(O)[C@H]1[C@@H]2CC[C@@H](O)/C=C/C[C@@H]21 [E-04a, (1S,5R,8R,9S, E)-5-hydroxybicyclo[6.1.0]non-3-ene-9-carboxylic acid]
changes in the 1H-NMR spectrum after 7 days [6]: no changes
